Experimental data published in patent US20130288897A1, “SYNERGISTIC PESTICIDAL COMPOSITIONS” (Dow AgroSciences LLC, priority 2012, published 2013).

How the values were obtained:
Assay type in all cases: in vivo
[1] = test system: cotton aphid (CA) Aphis gossypii; assay: Cotton aphid track-sprayer test on cotton: Compound A or imidacloprid with Durango (glyphosate) or Durango Blank and AMS (Example XVI); details: average of 5 reps
Protocol: Glyphosate resistant cotton plants (Gossypium hirsutum, cv ‘DP493’) were trimmed to 1 true leaf and infested with mixed stages of cotton aphid (CA) Aphis gossypii 24 h prior to application. Mixed developmental stage CA were infested onto the upper surface of each treated leaf by transferring infested foliage from an insectary colony. Each plant was infested with approximately equal numbers of CA based on visual estimation of aphid density on the infested material. Infested plants were held in the growth chamber (L:D 16:8 and 25° C.). Glyphosate (Durango®, Dow AgroSciences, LLC, Indianapolis, Ind.) was mixed with water at a rate equivalent to 15 ml/L (1.2 qt/Ac). […] A glyphosate free formulation of Durango® was prepared using these same mixing instructions. […] High rate Compound A concentrations were created by diluting Compound A technical material with acetone to achieve a 10 ppm solution. […] […] […] Nozzle height above the canopy was held constant at ca. 30 cm. Plants were evaluated after 3 days from the time of infestation by counting all live cotton aphids on each plant.
[…] Percent control for all treatments was calculated using the rep average for the untreated plants.

[2] = test system: cotton aphid (CA) Aphis gossypii; assay: Cotton aphid track-sprayer test on cotton: Compound A or imidacloprid with glufosinate (Liberty) and AMS (Example XVII); details: AMS 18 mg/ml, no insecticide, no glufosinate
Protocol: (§1) Glyphosate resistant cotton plants (Gossypium hirsutum, cv ‘DP493’) were trimmed to 1 true leaf and infested with mixed stages of cotton aphid (CA) Aphis gossypii 24 h prior to application. Mixed developmental stage CA were infested onto the upper surface of each treated leaf by transferring infested foliage from an insectary colony. Each plant was infested with approximately equal numbers of CA based on visual estimation of aphid density on the infested material. Infested plants were held in the growth chamber (L:D 16:8 and 25° C.). Glufosinate (Liberty®, Bayer CropScience, Monheim am Rhein, Germany) was mixed with water at a rate equivalent to 5 ml/L (0.4 qt/Ac). […] High rate Compound A concentrations were created by diluting Compound A technical material with acetone to achieve a 10 ppm solution. […] […] […] Nozzle height above the canopy was held constant at ca. 30 cm. Plants were evaluated after 3 days from the time of infestation by counting all live cotton aphids on each plant.
TABLE 6 contains the calculated Colby values for combinations of treatments as well as the outcome of statistical evaluations between predicted (Colby) and actual measured values. These T-test statistics were only calculated for the 0.2 and 0.05 g/Ha rates. […] These same trends were apparent when Compound A was applied with both glufosinate and AMS.

[3] = test system: cotton aphid (CA) Aphis gossypii; assay: Cotton aphid track-sprayer test on cotton: Compound A with glufosinate (Liberty) and AMS, rates 0.4, 0.1 and 0.025 g/Ha (Example XVIII); details: AMS 18 g/L, no insecticide, no Lib.
Protocol: as §1, with “24 hours” for “24 h”, “a 20” for “a 10”

N.N.O=S(=O)(O)O [AMS, ammonium sulfate]
% control Ave ([1]; AMS 18 g/L alone, 0 g insecticide/Ha, block of Durango treatments): −7.0% | % control Ave ([1]; AMS 18 g/L alone, no insecticide, block of Durango Blank treatments): 13.3% | % control Ave ([1]; AMS 18 g/L with Durango Blank 0.015 ml/ml, no insecticide): 26.5% | % control AVE [2]: 4.5% | % Control (Negatives to zero) Ave [3]: 13.2%
